Laboratory results from the CheMixHub ionic liquid set.

Test: xn = mol fraction of the nth substance listed

CCC(=O)[O-].C[NH2+]Cc1ccccc1 + CN(C)C=O
viscosity [mPa·s], 101 kPa
Settings | 293.15 K | 298.15 K | 303.15 K | 308.15 K | 313.15 K | 318.15 K | 323.15 K | 328.15 K
x1 = 0.006359 | 0.956 | 0.914 | 0.877 | 0.845 | 0.816 | 0.79 | 0.766 | 0.745
x1 = 0.01185 | 0.969 | 0.926 | 0.888 | 0.854 | 0.824 | 0.797 | 0.772 | 0.75
x1 = 0.01701 | 0.989 | 0.944 | 0.902 | 0.866 | 0.835 | 0.807 | 0.781 | 0.758
x1 = 0.02175 | 1.007 | 0.958 | 0.915 | 0.878 | 0.845 | 0.815 | 0.788 | 0.764
x1 = 0.02663 | 1.016 | 0.966 | 0.922 | 0.884 | 0.85 | 0.819 | 0.792 | 0.768
x1 = 0.03255 | 1.045 | 0.991 | 0.944 | 0.903 | 0.866 | 0.834 | 0.805 | 0.779
x1 = 0.0357 | 1.057 | 1.001 | 0.953 | 0.911 | 0.874 | 0.841 | 0.812 | 0.786
x1 = 0.04024 | 1.072 | 1.015 | 0.965 | 0.921 | 0.882 | 0.848 | 0.818 | 0.791

CCCCCCCCn1cc[n+](C)c1.N[C@@H](CCC(=O)O)C(=O)[O-] + O
298.15 K, 100 kPa
Settings | electrical conductivity [S/m]
x1 = 0.001637 | 0.28
x1 = 0.002301 | 0.358
x1 = 0.002857 | 0.426
x1 = 0.003573 | 0.518
x1 = 0.004181 | 0.593
x1 = 0.004913 | 0.651
x1 = 0.005822 | 0.708
x1 = 0.006748 | 0.759
x1 = 0.008079 | 0.835
x1 = 0.008965 | 0.89
x1 = 0.01029 | 0.928
x1 = 0.01145 | 0.926

CC[N+](CC)(CC)CCCS(=O)(=O)O.F[B-](F)(F)F + O
298 K, 101 kPa
Settings | electrical conductivity [S/m]
x1 = 0.00077 | 1.03
x1 = 0.002 | 1.68
x1 = 0.01495 | 2.42
x1 = 0.02005 | 2.22
